# Laboratory results taken from US20120083522A1, “MODULATION OF INFLAMMATORY RESPONSES BY FACTOR XI” (Isis Pharmaceuitcals, inc., priority 2009, published 2012).
# In the oligonucleotide strings, read from the 5' end, every base follows the letter of its sugar. An asterisk marks phosphorothioate; unmarked linkages are phosphodiester. Other units and linkages are bracketed, terminal groups are in braces. A string of capitals states the bases alone. e = 2'-O-(2-methoxyethyl) (MOE); [5mC] = 5-methylcytosine; d = 2'-deoxy (DNA)
# Key:
# human Factor XI mRNA [1] = assay: Antisense inhibition in HepG2 cells by microwalk gapmers, 75 nM, lipofectin (Example 3); type: cell-based; conditions: HepG2 cells, 75 nM
# Method in brief: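 HepG2 cells (10,000 per well) were transfected with 75 nM gapmer using lipofectin and treated for about 24 h. Factor XI mRNA was quantified by real-time PCR, normalized to RiboGreen total RNA and expressed as percent inhibition versus untreated controls.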
# human Factor XI mRNA [2] = assay: Dose-dependent inhibition in HepG2 cells, electroporation (Example 4); type: cell-based; conditions: 16 hours
# Protocol: (§1) The gapmers were also transfected via electroporation and their dose dependent inhibition of human Factor XI mRNA was measured. Cells were plated at a density of 20,000 cells per well and transfected via electroporation with 0.7 μM, 2.2 μM, 6.7 μM, and 20 μM concentrations of antisense oligonucleotide, as specified in Table 10. After a treatment period of approximately 16 hours, RNA was isolated from the cells and Factor XI mRNA levels were measured by quantitative real-time PCR. Human Factor XI primer probe set RTS 2966 was used to measure mRNA levels. Factor XI mRNA levels were adjusted according to total RNA content, as measured by RIBOGREEN®. Results are presented as percent inhibition of Factor XI, relative to untreated control cells.
# human Factor XI mRNA [3] = assay: Dose-dependent inhibition in HepG2 cells, lipofectin (Example 4); type: cell-based; conditions: 16 hours
# Protocol: as §1, with “Cells” for “The gapmers were also transfected via electroporation and their dose dependent inhibition of human Factor XI mRNA was measured. Cells”, “10,000” for “20,000”, “using lipofectin reagent” for “via electroporation”, “9.375 nM, 18.75 nM, 37.5 nM” for “0.7 μM, 2.2 μM, 6.7 μM,”, “75 nM” for “20 μM”, “9.” for “10.”
# [4] = Cynomolgus monkeys: body and organ weights (Example 29); type: in vivo; conditions: for Kidney weight / Liver weight / Spleen weight: after euthanasia; for Body weight: escalating doses 5, 10, 25 mg/kg s.c.
# Protocol: (§2) Groups, each consisting of two male and three female monkeys, were injected subcutaneously with ISIS 416838, ISIS 416850, ISIS 416858, ISIS 416864, or ISIS 417002 in escalating doses. Antisense oligonucleotide was administered to the monkeys at 5 mg/kg three times per a week for week 1; 5 mg/kg twice per week for weeks 2 and 3; 10 mg/kg three times per week for week 4; 10 mg/kg twice per week for weeks 5 and 6; 25 mg/kg three times per week for week 7; and 25 mg/kg twice per week for weeks 8, 9, 10, 11, and 12. One control group, consisting of two male and three female monkeys, was injected subcutaneously with PBS according to the same dosing regimen. An additional experimental group, consisting of two male and three female monkeys, was injected subcutaneously with ISIS 416850 in a chronic, lower dose regimen. Antisense oligonucleotide was administered to the monkeys at 5 mg/kg three times per week for week 1; 5 mg/kg twice per week for week 2 and 3; 10 mg/kg three times per week for week 4; and 10 mg/kg twice per week for weeks 5 to 12. Body weights were measured weekly. Blood samples were collected 14 days and 5 days before the start of treatment and subsequently once per week for Factor XI protein activity analysis in plasma and measurement of various hematologic factors. On day 85, the monkeys were euthanized by exsanguination while under deep anesthesia, and organs harvested for further analysis.
# Body weights were taken once weekly throughout the dosing regimen. […] Organ weights were taken after the animals were euthanized and livers, kidneys and spleens were harvested and weighed. […] The ISIS oligonucleotide, ISIS 416850, given with the chronic dose regimen is distinguished from the other oligonucleotides with an asterisk (*).
# [5] = Cynomolgus monkeys: hematology assays (Example 29); type: in vivo
# Protocol: as §2
# The ISIS oligonucleotide, ISIS 416850, given with the chronic dose regimen is distinguished from the other oligonucleotides with an asterisk (*).
# Factor XI protein = assay: Cynomolgus monkeys: plasma Factor XI protein ELISA (Example 29); type: in vivo; conditions: escalating doses 5, 10, 25 mg/kg s.c.
# Protocol: as §2
# Plasma samples from all monkey groups taken on different days were analyzed by a sandwich-style ELISA assay (Affinity Biologicals Inc.) using an affinity-purified polyclonal anti-Factor XI antibody as the capture antibody and a peroxidase-conjugated polyclonal anti-Factor XI antibody as the detecting antibody. Monkey plasma was diluted 1:50 for the assay. Peroxidase activity was expressed by incubation with the substrate o-phenylenediamine. The color produced was quantified using a microplate reader at 490 nm and was considered to be proportional to the concentration of Factor XI in the samples.
# The results are presented in Table 122, expressed as percentage reduction relative to that of the PBS control.
# [6] = oligonucleotides targeted to nucleobases 1062 to 1091 of SEQ ID NO: 1
substance,measurement,setting,value
416989 (antisense eG*eA*dG*dA*dT*dT*d[5mC]*dT*dT*dT*dG*dG*dG*d[5mC]*d[5mC]*eA*eT*eT*e[5mC]*e[5mC]) [compound 416989],% inhibition of human Factor XI mRNA levels,human Factor XI mRNA [1]; [6],88%
same,"percent inhibition of Factor XI mRNA, relative to untreated control cells",human Factor XI mRNA [2]; 0.7 μM,32%
same,"percent inhibition of Factor XI mRNA, relative to untreated control cells",human Factor XI mRNA [2]; 2.2 μM,65%
same,"percent inhibition of Factor XI mRNA, relative to untreated control cells",human Factor XI mRNA [2]; 6.7 μM,88%
same,"percent inhibition of Factor XI mRNA, relative to untreated control cells",human Factor XI mRNA [2]; 20 μM,94%
same,"percent inhibition of Factor XI mRNA, relative to untreated control cells",human Factor XI mRNA [3]; 9.375 nM,18%
same,"percent inhibition of Factor XI mRNA, relative to untreated control cells",human Factor XI mRNA [3]; 18.75 nM,41%
same,"percent inhibition of Factor XI mRNA, relative to untreated control cells",human Factor XI mRNA [3]; 37.5 nM,62%
same,"percent inhibition of Factor XI mRNA, relative to untreated control cells",human Factor XI mRNA [3]; 75 nM,83%
416993 (antisense e[5mC]*eT*dT*dT*dG*dA*dG*dA*dT*dT*d[5mC]*dT*dT*dT*dG*eG*eG*e[5mC]*e[5mC]*eA) [compound 416993],% inhibition of human Factor XI mRNA levels,human Factor XI mRNA [1]; [6],91%
same,"percent inhibition of Factor XI mRNA, relative to untreated control cells",human Factor XI mRNA [2]; 0.7 μM,22%
same,"percent inhibition of Factor XI mRNA, relative to untreated control cells",human Factor XI mRNA [2]; 2.2 μM,48%
same,"percent inhibition of Factor XI mRNA, relative to untreated control cells",human Factor XI mRNA [2]; 6.7 μM,87%
same,"percent inhibition of Factor XI mRNA, relative to untreated control cells",human Factor XI mRNA [2]; 20 μM,92%
same,"percent inhibition of Factor XI mRNA, relative to untreated control cells",human Factor XI mRNA [3]; 9.375 nM,15%
same,"percent inhibition of Factor XI mRNA, relative to untreated control cells",human Factor XI mRNA [3]; 18.75 nM,37%
same,"percent inhibition of Factor XI mRNA, relative to untreated control cells",human Factor XI mRNA [3]; 37.5 nM,50%
same,"percent inhibition of Factor XI mRNA, relative to untreated control cells",human Factor XI mRNA [3]; 75 nM,68%
417000 (antisense eT*eG*d[5mC]*dA*d[5mC]*dA*dG*dT*dT*dT*d[5mC]*dT*dG*dG*d[5mC]*eA*eG*eG*e[5mC]*e[5mC]) [compound 417000],% inhibition of human Factor XI mRNA levels,human Factor XI mRNA [1]; oligonucleotides targeted to nucleobases 1275 to 1318 of SEQ ID NO: 1,89%
same,"percent inhibition of Factor XI mRNA, relative to untreated control cells",human Factor XI mRNA [2]; 0.7 μM,46%
same,"percent inhibition of Factor XI mRNA, relative to untreated control cells",human Factor XI mRNA [2]; 2.2 μM,73%
same,"percent inhibition of Factor XI mRNA, relative to untreated control cells",human Factor XI mRNA [2]; 6.7 μM,76%
same,"percent inhibition of Factor XI mRNA, relative to untreated control cells",human Factor XI mRNA [2]; 20 μM,89%
same,"percent inhibition of Factor XI mRNA, relative to untreated control cells",human Factor XI mRNA [3]; 9.375 nM,35%
same,"percent inhibition of Factor XI mRNA, relative to untreated control cells",human Factor XI mRNA [3]; 18.75 nM,47%
same,"percent inhibition of Factor XI mRNA, relative to untreated control cells",human Factor XI mRNA [3]; 37.5 nM,58%
same,"percent inhibition of Factor XI mRNA, relative to untreated control cells",human Factor XI mRNA [3]; 75 nM,70%
ISIS 416838: gapmer of Table 6 (antisense eG*e[5mC]*eA*eA*e[5mC]*d[5mC]*dG*dG*dG*dA*dT*dG*dA*dT*dG*eA*eG*eT*eG*e[5mC]),Kidney weight,[4],12 g
same,Liver weight,[4],63 g
same,Spleen weight,[4],5 g
same,Body weight,[4]; day 1,2720 g
same,Body weight,[4]; day 8,2592 g
same,Body weight,[4]; day 15,2642 g
same,Body weight,[4]; day 22,2702 g
same,Body weight,[4]; day 29,2689 g
same,Body weight,[4]; day 36,2708 g
same,Body weight,[4]; day 43,2700 g
same,Body weight,[4]; day 50,2731 g
same,Body weight,[4]; day 57,2737 g
same,Body weight,[4]; day 64,2746 g
same,Body weight,[4]; day 71,2869 g
same,Body weight,[4]; day 78,2766 g
same,platelet count,[5]; day 8,387000 µL⁻¹
same,platelet count,[5]; day 15,387000 µL⁻¹
same,platelet count,[5]; day 22,319000 µL⁻¹
same,platelet count,[5]; day 29,337000 µL⁻¹
same,platelet count,[5]; day 36,370000 µL⁻¹
same,platelet count,[5]; day 43,365000 µL⁻¹
same,platelet count,[5]; day 50,372000 µL⁻¹
same,platelet count,[5]; day 57,371000 µL⁻¹
same,platelet count,[5]; day 64,358000 µL⁻¹
same,platelet count,[5]; day 71,365000 µL⁻¹
same,platelet count,[5]; day 78,348000 µL⁻¹
same,platelet count,[5]; day 85,344000 µL⁻¹
same,platelet count,[5]; day −5,425000 µL⁻¹
same,platelet count,[5]; day −14,377000 µL⁻¹
same,Inhibition of Factor XI protein relative to the PBS control,Factor XI protein; day 8,3%
same,Inhibition of Factor XI protein relative to the PBS control,Factor XI protein; day 15,4%
same,Inhibition of Factor XI protein relative to the PBS control,Factor XI protein; day 22,5%
same,Inhibition of Factor XI protein relative to the PBS control,Factor XI protein; day 29,8%
same,Inhibition of Factor XI protein relative to the PBS control,Factor XI protein; day 36,11%
same,Inhibition of Factor XI protein relative to the PBS control,Factor XI protein; day 43,5%
same,Inhibition of Factor XI protein relative to the PBS control,Factor XI protein; day 50,8%
same,Inhibition of Factor XI protein relative to the PBS control,Factor XI protein; day 57,10%
same,Inhibition of Factor XI protein relative to the PBS control,Factor XI protein; day 64,11%
same,Inhibition of Factor XI protein relative to the PBS control,Factor XI protein; day 71,12%
same,Inhibition of Factor XI protein relative to the PBS control,Factor XI protein; day 78,10%
same,Inhibition of Factor XI protein relative to the PBS control,Factor XI protein; day 85,10%
same,Inhibition of Factor XI protein relative to the PBS control,Factor XI protein; day −5 (before treatment),0%
same,Inhibition of Factor XI protein relative to the PBS control,Factor XI protein; day −14 (before treatment),0%
ISIS 416864: gapmer of Table 8 (antisense eG*eG*e[5mC]*eA*eG*d[5mC]*dG*dG*dA*d[5mC]*dG*dG*d[5mC]*dA*dT*eT*eG*eG*eT*eG),Kidney weight,[4],14 g
same,Liver weight,[4],53 g
same,Spleen weight,[4],5 g
same,Body weight,[4]; day 1,2890 g
same,Body weight,[4]; day 8,2784 g
same,Body weight,[4]; day 15,2817 g
same,Body weight,[4]; day 22,2857 g
same,Body weight,[4]; day 29,2863 g
same,Body weight,[4]; day 36,3327 g
same,Body weight,[4]; day 43,3355 g
same,Body weight,[4]; day 50,3408 g
same,Body weight,[4]; day 57,3387 g
same,Body weight,[4]; day 64,3384 g
same,Body weight,[4]; day 71,2942 g
same,Body weight,[4]; day 78,2822 g
same,platelet count,[5]; day 8,438000 µL⁻¹
same,platelet count,[5]; day 15,439000 µL⁻¹
same,platelet count,[5]; day 22,364000 µL⁻¹
same,platelet count,[5]; day 29,397000 µL⁻¹
same,platelet count,[5]; day 36,428000 µL⁻¹
same,platelet count,[5]; day 43,351000 µL⁻¹
same,platelet count,[5]; day 50,419000 µL⁻¹
same,platelet count,[5]; day 57,409000 µL⁻¹
same,platelet count,[5]; day 64,383000 µL⁻¹
same,platelet count,[5]; day 71,394000 µL⁻¹
same,platelet count,[5]; day 78,366000 µL⁻¹
same,platelet count,[5]; day 85,387000 µL⁻¹
same,platelet count,[5]; day −5,456000 µL⁻¹
same,platelet count,[5]; day −14,434000 µL⁻¹
same,Inhibition of Factor XI protein relative to the PBS control,Factor XI protein; day 8,7%
same,Inhibition of Factor XI protein relative to the PBS control,Factor XI protein; day 15,9%
same,Inhibition of Factor XI protein relative to the PBS control,Factor XI protein; day 22,7%
same,Inhibition of Factor XI protein relative to the PBS control,Factor XI protein; day 29,10%
same,Inhibition of Factor XI protein relative to the PBS control,Factor XI protein; day 36,9%
same,Inhibition of Factor XI protein relative to the PBS control,Factor XI protein; day 43,9%
same,Inhibition of Factor XI protein relative to the PBS control,Factor XI protein; day 50,10%
same,Inhibition of Factor XI protein relative to the PBS control,Factor XI protein; day 57,7%
same,Inhibition of Factor XI protein relative to the PBS control,Factor XI protein; day 64,5%
same,Inhibition of Factor XI protein relative to the PBS control,Factor XI protein; day 71,10%
same,Inhibition of Factor XI protein relative to the PBS control,Factor XI protein; day 78,9%
same,Inhibition of Factor XI protein relative to the PBS control,Factor XI protein; day 85,8%
same,Inhibition of Factor XI protein relative to the PBS control,Factor XI protein; day −5 (before treatment),5%
same,Inhibition of Factor XI protein relative to the PBS control,Factor XI protein; day −14 (before treatment),0%
